Drawing on ChEMBL document CHEMBL4483862, “Open-source discovery of chemical leads for next-generation chemoprotective antimalarials” (2018), this text covers IC50 and IC90 for 39 compounds.

SMILES strings stand for the structures.

The subject of this test is Plasmodium berghei. In words: Luciferase/luciferin-expressing antifolate-resistant parasites were used to infect a culture of HepG2 cells that were pre-incubated with compounds. Infected hepatocytes emit light due to the luciferase reaction. Assay results are presented as the percent inhibition of light emission compared to control. […]. The test is classed as functional. Conditions: sporozoite; for IC90: read-out: LUCIFERASE INFECTION ASSAY - IC90.

The mark [1] stands for this setting: read-out: LUCIFERASE INFECTION ASSAY - IC50.

Turning to `Cn1nc(SCC(=O)NN)c(=O)n(C)c1=O`, the IC90 was 3.54 µM. The 50% inhibitory concentration (IC50) (PBLUC_HILL_SLOPE 9.87, PBLUC_R_SQUARED 0.424, read-out: LUCIFERASE INFECTION ASSAY - IC50) was 2.84 µM.

In the case of `COc1ccc(C2=NOC(C(N)=O)C2)cc1OC` (stereo not drawn), the IC90 came to 9.25 µM. In addition, the IC50 (PBLUC_HILL_SLOPE 2.3, PBLUC_R_SQUARED 0.443, read-out: LUCIFERASE INFECTION ASSAY - IC50) is 3.55 µM.

Regarding `Cc1ccc(NC(=O)c2snnc2C)cc1Cl`, the IC90 is over 12.3 µM. Also, the half-maximal inhibitory concentration (IC50) (HEPG2TOX_HILL_SLOPE 16.5, HEPG2TOX_R_SQUARED 0.725, read-out: LUCIFERASE INFECTION ASSAY - IC50) was over 12.3 µM.

For the compound `O=c1c(Br)c(Br)cnn1-c1ccccc1`, the concentration for an effect of 90% (IC90) is over 10 µM. For the same compound, the IC50 (HEPG2TOX_HILL_SLOPE 14.1, HEPG2TOX_R_SQUARED 0.656, PBLUC_HILL_SLOPE 2.79, PBLUC_R_SQUARED 0.266, read-out: LUCIFERASE INFECTION ASSAY - IC50) is 6.1 µM.

Take `C#Cc1cccc(NC(=O)c2[nH]c(C)c(C(=O)OCC)c2C)c1`: the 90% effect concentration (IC90) is over 10 µM. For the same compound, the 50% inhibitory concentration (IC50) under setting [1] is over 10 µM.

On to `CN(C)c1cccc(-c2cnc3sc(NCc4ccncc4)nn23)c1`, for which the IC90 is over 9.42 µM. Further, the IC50 under setting [1] is over 9.42 µM.

For `Cc1c(C(=O)Nc2nonc2-c2ccc3c(c2)CCCC3)oc2ccccc12`, the IC90 was over 8.84 µM. In addition, the half-maximal inhibitory concentration (IC50) under setting [1] is over 8.84 µM.

With `COc1ccc(C2=C(NCCc3ccccc3)c3ccccc3C2=O)cc1`, the IC90 stood at 0.404 µM. The IC50 (FFLUC_HILL_SLOPE 105, FFLUC_R_SQUARED 0.774, PBLUC_HILL_SLOPE 1.53, PBLUC_R_SQUARED 0.754, read-out: LUCIFERASE INFECTION ASSAY - IC50) stood at 0.096 µM.

Take `Cc1cc(Br)ccc1OCC(=O)NC(C)c1ccccc1` (stereo not drawn): the 90% effect concentration (IC90) was over 9.48 µM. Moreover, the IC50 (HEPG2TOX_HILL_SLOPE 4.44, HEPG2TOX_R_SQUARED 0.285, read-out: LUCIFERASE INFECTION ASSAY - IC50) was over 9.48 µM.

On to `CCN(CC(=O)Nc1ccc2c(c1)OCCO2)C(=O)CCCc1nc2ccccc2s1`, for which the IC90 is over 10 µM. The 50% inhibitory concentration (IC50) under setting [1] is over 10 µM.

Turning to `O=C(Nc1ccc(OC(F)(F)F)cc1)Nc1ccccc1Sc1ncc([N+](=O)[O-])cc1C(F)(F)F`, the concentration for an effect of 90% (IC90) was over 6.37 µM. The IC50 (FFLUC_HILL_SLOPE 90.5, FFLUC_R_SQUARED 0.394, read-out: LUCIFERASE INFECTION ASSAY - IC50) is over 6.37 µM.

Consider `Cc1c2cnn(C)c(=O)c2c(C)n1-c1ccccc1`, for which the IC90 is over 13 µM. Moreover, the IC50 under setting [1] was over 13 µM.

`Cn1c(Sc2cnc(SCc3ccc(Cl)cc3)nc2-c2ccccc2)nnc1C(F)(F)F`: the concentration for an effect of 90% (IC90) was over 6.68 µM. For the same compound, the IC50 under setting [1] is over 6.68 µM.

In the case of `CSc1sc(C(=O)Nc2cc(C(F)(F)F)cc(C(F)(F)F)c2)c(-c2ccc(Cl)cc2)c1C#N`, the IC90 turned out to be 2.43 µM. For the same compound, the IC50 under setting [1] stood at 0.839 µM.

As for `COc1ccccc1C(=O)Nc1cc(-c2cn3cccnc3n2)ccc1C`, the IC90 was over 10 µM. Further, where the note is “HEPG2TOX_HILL_SLOPE 18.3, HEPG2TOX_R_SQUARED 0.752, PBLUC_HILL_SLOPE 13.2, PBLUC_R_SQUARED 0.331, read-out: LUCIFERASE INFECTION ASSAY - IC50”, the half-inhibitory concentration (IC50) amounted to 9.08 µM.

Turning to `Cc1cc(C(=O)COc2ccccc2C(N)=O)c(C)n1C(C)c1ccccc1` (stereo not drawn), the IC90 is over 10 µM. Further, where the note is “HEPG2TOX_HILL_SLOPE 1.33, HEPG2TOX_R_SQUARED 0.859, PBLUC_HILL_SLOPE 2.23, PBLUC_R_SQUARED 0.779, read-out: LUCIFERASE INFECTION ASSAY - IC50”, the IC50 came out at 4.55 µM.

In the case of `Cc1ccc(Nc2ccc(S(=O)(=O)NC3=NCCCCC3)cc2[N+](=O)[O-])cc1`, the 90% effect concentration (IC90) was over 10 µM. For the same compound, the IC50 (HEPG2TOX_HILL_SLOPE 0.294, HEPG2TOX_R_SQUARED 0.717, PBLUC_HILL_SLOPE 0.103, PBLUC_R_SQUARED 0.0204, read-out: LUCIFERASE INFECTION ASSAY - IC50) was over 10 µM.

For the compound `N#C/C(=C\c1ccc2c(c1)OCCO2)c1ccc(C(F)(F)F)cn1`, the 90% effect concentration (IC90) is over 10 µM. Moreover, under setting [1], the IC50 is over 10 µM.

Take `CC(=O)Nc1ccccc1OCC(=O)NC(=O)NC(C)C1CC2CCC1C2` (stereo not drawn): the IC90 was over 10 µM. Also, the half-maximal inhibitory concentration (IC50) under setting [1] was 5.71 µM.

With `Cc1nn(CC(=O)NC(C)c2cc3ccccc3o2)c(C)c1S(=O)(=O)N1CCc2ccccc21` (stereo not drawn), the IC90 was over 10 µM. For the same compound, the 50% inhibitory concentration (IC50) under setting [1] was over 10 µM.

As to `Nc1c(C(=O)c2ccc(Cl)cc2)sc2nc3c(c(-c4cccs4)c12)CCCC3`, the IC90 was over 7.77 µM. The IC50 (FFLUC_HILL_SLOPE 44.8, FFLUC_R_SQUARED 0.458, PBLUC_HILL_SLOPE 1.88, PBLUC_R_SQUARED 0.367, read-out: LUCIFERASE INFECTION ASSAY - IC50) was determined as 5.01 µM.

For the compound `CCOc1cc2c(cc1/C=C/C(=O)c1ccc3[nH]c(=O)[nH]c3c1)OC(C)C2` (stereo not drawn), the IC90 was over 10 µM. Also, under setting [1], the IC50 is over 10 µM.

For `CCCCNC(=O)COc1ccc2[nH]c3ccccc3c(=O)c2c1`, the IC90 is 8.21 µM. Moreover, the IC50 (PBLUC_HILL_SLOPE 1.51, PBLUC_R_SQUARED 0.724, read-out: LUCIFERASE INFECTION ASSAY - IC50) came out at 1.92 µM.

With `O=C(c1cccs1)c1c(-c2ccccc2)cc2ccccn12`, the IC90 was 3.73 µM. Moreover, the half-inhibitory concentration (IC50) (HEPG2TOX_HILL_SLOPE 2.42, HEPG2TOX_R_SQUARED 0.887, PBLUC_HILL_SLOPE 12.4, 11.2, PBLUC_R_SQUARED 0.720, 0.734, read-out: LUCIFERASE INFECTION ASSAY - IC50) turned out to be 3.1 µM.

For the compound `CN(Cc1ccc(OCc2ccc(Cl)cc2)cc1)C(=O)c1cnn(C)c1`, the IC90 was over 10 µM. Besides, under setting [1], the IC50 is over 10 µM.

Regarding `N#C/C=C1\SCC(=O)N1CC(=O)c1ccc([N+](=O)[O-])cc1`, the 90% effect concentration (IC90) is over 10 µM. Moreover, the half-inhibitory concentration (IC50) (PBLUC_HILL_SLOPE 1.79, PBLUC_R_SQUARED 0.472, read-out: LUCIFERASE INFECTION ASSAY - IC50) stood at 5.27 µM.

Take `CC(C)(C)c1csc(NC(=O)Nc2ccc(Cl)cc2)n1`: the concentration for an effect of 90% (IC90) was over 10.7 µM. The IC50 (HEPG2TOX_HILL_SLOPE 9.42, HEPG2TOX_R_SQUARED 0.969, PBLUC_HILL_SLOPE 14.5, PBLUC_R_SQUARED 0.489, read-out: LUCIFERASE INFECTION ASSAY - IC50) was 9.21 µM.

Consider `Cc1ccc(CC(=O)NCc2ccc(C#N)cc2)cc1`, for which the IC90 is 8.45 µM. The 50% inhibitory concentration (IC50) (PBLUC_HILL_SLOPE 3.17, PBLUC_R_SQUARED 0.517, read-out: LUCIFERASE INFECTION ASSAY - IC50) is 4.23 µM.

Take `CCOC(=O)c1c(NC(=O)C(C)N(C)CC(=O)Nc2cc(C)ccc2C)sc2c1CCC(C)C2` (stereo not drawn): the concentration for an effect of 90% (IC90) was over 10 µM. Moreover, the IC50 under setting [1] was over 10 µM.

`O=c1c(Cl)c(Cl)cnn1-c1ccc(C(F)(F)F)cc1`: the 90% effect concentration (IC90) turned out to be 5 µM. Also, under “FFLUC_HILL_SLOPE 1.51, FFLUC_R_SQUARED 0.59, HEPG2TOX_HILL_SLOPE 2.35, HEPG2TOX_R_SQUARED 0.929, PBLUC_HILL_SLOPE 2.87, PBLUC_R_SQUARED 0.611, read-out: LUCIFERASE INFECTION ASSAY - IC50”, the IC50 stood at 2.33 µM.

Regarding `CC(C)(C)c1ccc(CN2C(=O)CS/C2=C\C(=O)c2ccc(C(C)(C)C)cc2)cc1`, the IC90 is over 10 µM. Under “FFLUC_HILL_SLOPE 1.26, FFLUC_R_SQUARED 0.691, PBLUC_HILL_SLOPE 1.17, PBLUC_R_SQUARED 0.615, read-out: LUCIFERASE INFECTION ASSAY - IC50”, the half-maximal inhibitory concentration (IC50) stood at 1.59 µM.

Consider `COCCCN1C(=O)N(Cc2ccccc2)C(=O)C12CCN(Cc1cccc(-c3ccco3)c1)CC2`, for which the IC90 is over 6.77 µM. In addition, where the note is “PBLUC_HILL_SLOPE 3.26, PBLUC_R_SQUARED 0.648, read-out: LUCIFERASE INFECTION ASSAY - IC50”, the IC50 came out at 4.58 µM.

Regarding `COc1ccc(-c2cnc3cnc(-c4cccs4)cn23)cc1`, the IC90 amounted to 8.31 µM. The IC50 (PBLUC_HILL_SLOPE 3.03, PBLUC_R_SQUARED 0.723, read-out: LUCIFERASE INFECTION ASSAY - IC50) was 4.02 µM.

For the compound `C/C=C/c1ccc(Oc2nc(C(F)(F)F)nc3ccccc23)c(OC)c1`, the concentration for an effect of 90% (IC90) stood at 6.79 µM. For the same compound, the IC50 (HEPG2TOX_HILL_SLOPE 2.94, HEPG2TOX_R_SQUARED 0.97, PBLUC_HILL_SLOPE 2.81, PBLUC_R_SQUARED 0.724, read-out: LUCIFERASE INFECTION ASSAY - IC50) turned out to be 3.1 µM.

For `CCN(c1ccccc1)S(=O)(=O)c1cc(NC(=O)NC23CC4(C)CC(C)(CC(C)(C4)C2)C3)ccc1Cl`, the IC90 was 6.3 µM. Also, the IC50 (HEPG2TOX_HILL_SLOPE 3.39, HEPG2TOX_R_SQUARED 0.973, PBLUC_HILL_SLOPE 5.7, PBLUC_R_SQUARED 0.283, read-out: LUCIFERASE INFECTION ASSAY - IC50) is 4.28 µM.

In the case of `CCOC(=O)Nc1nc2ccc(C(F)(F)F)cc2[nH]1`, the concentration for an effect of 90% (IC90) turned out to be 1.1 µM. The IC50 (HEPG2TOX_HILL_SLOPE 0.892, HEPG2TOX_R_SQUARED 0.914, PBLUC_HILL_SLOPE 2.52, PBLUC_R_SQUARED 0.681, read-out: LUCIFERASE INFECTION ASSAY - IC50) amounted to 0.459 µM.

As to `CCc1ccc(S(=O)(=O)Nc2cc(Cl)c(O)c3ccccc23)cc1`, the IC90 is over 10 µM. The half-inhibitory concentration (IC50) (PBLUC_HILL_SLOPE 0.706, PBLUC_R_SQUARED 0.416, read-out: LUCIFERASE INFECTION ASSAY - IC50) was determined as 1.42 µM.

As for `COc1cc(/C=C2\C=c3ccccc3=C2O)cc(Cl)c1OC(C)C`, the IC90 is over 10 µM. The IC50 under setting [1] is over 10 µM.

Regarding `O=[N+]([O-])c1ccccc1N1CCN(Cc2nc3ccccc3s2)CC1`, the 90% effect concentration (IC90) is over 10 µM. Also, the IC50 under setting [1] is over 10 µM.

Usually IC50 stands for the point on the concentration scale where inhibition reaches its midpoint. The IC90 is the point of the concentration-response curve where the effect stands at 90%.
